Data on 22 compounds can be found in US7176199B2, “Aryl-substituted alicyclic compound and medical composition comprising the same” (Dainippon Pharmaceutical Co., Ltd., priority 2001, dated 2007).

In one assay the target is αvβ3 integrin (Homo sapiens, UniProt P05106+P06756). Description: Assay for the inhibition of αvβ3 integrin binding (vitronectin as ligand). Details: purchased Chemicon International, Inc., USA. Conditions: inhibition of specific binding of biotinylated human vitronectin to immobilized αvβ3 integrin. As for the experimental part: Experiment 1: Assay for the Inhibition of αvβ3 integrin binding
Sequence of αvβ3 integrin (P06756 31-889 limits assumed): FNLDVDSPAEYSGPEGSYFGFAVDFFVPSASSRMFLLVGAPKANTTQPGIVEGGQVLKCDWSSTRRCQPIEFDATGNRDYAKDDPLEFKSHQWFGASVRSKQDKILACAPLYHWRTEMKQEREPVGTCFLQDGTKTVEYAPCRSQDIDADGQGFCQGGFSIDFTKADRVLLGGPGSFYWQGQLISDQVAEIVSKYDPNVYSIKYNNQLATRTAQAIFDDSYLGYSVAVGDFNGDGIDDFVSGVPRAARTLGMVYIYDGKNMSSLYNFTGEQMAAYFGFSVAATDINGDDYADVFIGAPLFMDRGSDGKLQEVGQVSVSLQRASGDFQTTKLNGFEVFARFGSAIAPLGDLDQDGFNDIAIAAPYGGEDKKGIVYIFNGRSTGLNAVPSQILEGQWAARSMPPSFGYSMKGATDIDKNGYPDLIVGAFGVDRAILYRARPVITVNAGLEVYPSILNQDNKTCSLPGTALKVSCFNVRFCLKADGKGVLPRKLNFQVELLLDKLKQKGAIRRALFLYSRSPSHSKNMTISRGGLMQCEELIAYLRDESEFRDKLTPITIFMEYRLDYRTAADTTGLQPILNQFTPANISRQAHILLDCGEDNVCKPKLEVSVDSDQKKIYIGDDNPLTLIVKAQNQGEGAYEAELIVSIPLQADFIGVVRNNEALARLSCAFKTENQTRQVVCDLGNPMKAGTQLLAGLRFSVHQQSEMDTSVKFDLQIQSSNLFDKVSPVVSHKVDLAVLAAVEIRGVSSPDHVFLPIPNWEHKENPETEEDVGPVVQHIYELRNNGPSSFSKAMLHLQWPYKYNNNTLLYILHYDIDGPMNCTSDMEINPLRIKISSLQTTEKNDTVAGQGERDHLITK
Sequence of αvβ3 integrin (P06756 891-1048 partner limits assumed): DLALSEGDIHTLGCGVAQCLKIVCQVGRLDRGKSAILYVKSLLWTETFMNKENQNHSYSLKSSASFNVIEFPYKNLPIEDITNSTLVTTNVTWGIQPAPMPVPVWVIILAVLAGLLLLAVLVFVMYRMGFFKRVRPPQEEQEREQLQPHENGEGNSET
Sequence of αvβ3 integrin (P05106 27-788): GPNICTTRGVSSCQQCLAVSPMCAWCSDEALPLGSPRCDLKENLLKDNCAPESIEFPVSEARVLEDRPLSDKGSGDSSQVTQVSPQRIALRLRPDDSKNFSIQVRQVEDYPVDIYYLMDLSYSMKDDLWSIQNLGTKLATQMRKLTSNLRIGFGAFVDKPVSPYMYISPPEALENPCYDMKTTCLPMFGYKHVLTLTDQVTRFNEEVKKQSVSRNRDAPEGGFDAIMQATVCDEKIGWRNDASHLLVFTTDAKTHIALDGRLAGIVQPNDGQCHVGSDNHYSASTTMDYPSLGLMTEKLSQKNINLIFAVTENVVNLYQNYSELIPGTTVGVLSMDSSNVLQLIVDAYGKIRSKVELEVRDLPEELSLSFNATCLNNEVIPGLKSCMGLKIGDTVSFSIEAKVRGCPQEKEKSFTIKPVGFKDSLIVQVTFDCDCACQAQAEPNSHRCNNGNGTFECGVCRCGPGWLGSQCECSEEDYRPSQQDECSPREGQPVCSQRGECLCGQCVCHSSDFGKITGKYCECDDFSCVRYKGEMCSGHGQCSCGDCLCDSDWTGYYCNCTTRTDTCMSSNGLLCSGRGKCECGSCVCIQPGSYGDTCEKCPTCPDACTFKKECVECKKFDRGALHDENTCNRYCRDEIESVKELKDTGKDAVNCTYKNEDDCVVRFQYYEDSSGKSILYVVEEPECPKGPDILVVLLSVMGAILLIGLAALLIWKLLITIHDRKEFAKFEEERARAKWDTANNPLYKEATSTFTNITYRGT
This experiment was carried out based on the method described in […].
Purified human αvβ3 integrin (Chemicon International, Inc., USA) was adjusted to a concentration of 1 μg/ml with TBS^++ [20 mM Tris-HCl (pH 7.4), 150 mM NaCl, 1 mM CaCl2, 1 mM MgCl2], and the diluted solution was added to plates (Labsystems, Finland) at 50 μl/well. The plate was left at 4° C. overnight for immobilization of the αvβ3 integrin. All subsequent steps were done at 25° C., and the procedure for each well was described hereafter.
The solution was discarded, and then 200 μl of TBS^++ containing 1% BSA (Wako Pure Chemical Industries, Ltd., Japan) was added to the well and left for one hour for blocking. The well was washed with a wash solution (TBS^++ containing 0.01% Tween 20) 4 times, and 50 μl of a reaction solution (TBS^++ containing 0.1% BSA and 0.01% Tween 20) was added to the well. Subsequently, 25 μl of a test compound solution adjusted to each concentration with the reaction solution was added, and then mixed with 25 μl of biotinylated (Amersham Pharmacia Biotech, UK) human vitronectin (Gibco BRL, USA) adjusted to 0.4 μg/ml with the reaction solution. The mixture was reacted for 2 hours. After washing 4 times with the wash solution, 100 μl of peroxidase-labeled streptoavidin (Amersham Pharmacia Biotech, UK) diluted 1:500 with the reaction solution was added to the well. Following 30 minutes reaction, the well was washed 4 times with the wash solution, and 100 μl of a TMB substrate solution (Bio-Rad Laboratories, USA) was added to the well. Color was developed for 20 minutes and the reaction was stopped by adding 100 μl of 0.5 M sulfuric acid.
The absorbance at 450 nm was measured with a plate reader (Molecular Devices, USA) to obtain a total binding. To obtain a nonspecific binding, EDTA adjusted to 20 mM with the reaction solution was added instead of the test compound solution. A specific binding was calculated by subtracting the nonspecific binding from the total binding.

Another assay has as its target T1, αIIbβ3 integrin (Homo sapiens, UniProt P05106+P08514).
T1 construct: from tissue; host or cells: human platelets (Triton X-100 lysate)
Kind of assay: Assay for the inhibition of αIIbβ3 integrin binding (fibrinogen as ligand, integrin captured from platelet lysate). Conditions: inhibition of specific binding of biotinylated fibrinogen to αIIbβ3 integrin from human platelet lysate. How it is done:
Experiment 2: Assay for the Inhibition of αIIbβ3 Integrin Binding
This experiment was carried out based on the method described in Thromb. Haemostasis, 75, 339 (1996), Blood, 93, 2559 (1999), using fibrinogen as a ligand. According to the method described in the above literatures, assay for the inhibition of αIIbβ3 integrin binding can be achieved by capturing αIIbβ3 integrin from platelet lysate with the use of an activated antibody against αIIbβ3 integrin.
Human platelets were isolated in a conventional manner. At 25° C., the isolated platelets were adjusted to a concentration of 1.25×10^9/ml with TBS+[50 mM Tris-HCl (pH 7.4), 150 mM NaCl, 2 mM CaCl2], and then ⅛ volume of TBS^+ containing 2 mM leupepsin and 10 mM PMSF was added and stirred gently. Nest, 1/9 volume of TBS+ containing 10% Triton X-100 was added and stirred gently. After standing on ice for 30 minutes, a platelet lysate was prepared from the mixture by discarding the insoluble fraction with centrifugation (10,000 g, 15 minutes).
Anti-mouse IgG goat antibody (Jackson Immunoresearch Laboratories, Inc., USA) was adjusted to a concentration of 5 μg/ml with sodium carbonate buffer (pH 9.6) and added to plates at 50 μl/well. The plate was left at 4° C. overnight for immobilization of the antibody. All subsequent steps were done at 25° C., and the procedure for each well was described hereafter.
The well was washed once with TBS^+, and then 200 μl of TBS^+ containing 5% BSA was added to the well and left for one hour for blocking. The well was washed with a reaction solution (TBS^+ containing 0.1% BSA and 0.05% Triton X-100) 4 times, and then 50 μl of anti-human αIIbβ3 integrin activated monoclonal antibody (TAKARA SHUZO CO., LTD, Japan, PT25-2 strain) adjusted to 5 μg/ml with the reaction solution was added to the well. After one hour reaction, the well was washed 4 times with the reaction solution, and 50 μl of the platelet lysate diluted 1:2 with the reaction solution was added to the well. Following 2 hours reaction, the well was washed 4 times with the reaction solution, and 50 μl of the reaction solution was added to the well. Subsequently, 25 μl of a test compound solution adjusted to each concentration with the reaction solution was added, and then mixed with 25 μl of biotinylated fibrinogen (Calbiochem, Germany) adjusted to 2 μg/ml with the reaction solution. The mixture was reacted for one hour. After washing 4 times with the reaction solution, 100 μl of alkaline phosphatase-labeled streptoavidin (Gibco BRL, USA) diluted 1:500 with the reaction solution was added to the well. Following 30 minutes reaction, the well was washed 4 times with the wash solution. Next, 50 μl of the NaDPH solution (Invitrogen, former company name: Gibco BRL, USA) was added and reacted for 20 minutes, and then 50 μl of an amplification solution containing diaphorase and alcohol dehydrogenase (Invitrogen, former company name: Gibco BRL, USA) was added. Color was developed for 20 minutes and the reaction was stopped by adding 50 μl of 0.5 M sulfuric acid.
The absorbance at 495 nm was measured with a plate reader to obtain a total binding. To obtain a nonspecific binding, EDTA adjusted to 20 mM with the reaction solution was added instead of the test compound solution. A specific binding was calculated by subtracting the nonspecific binding from the total binding.

T1 sequence (P08514 32-887 limits assumed): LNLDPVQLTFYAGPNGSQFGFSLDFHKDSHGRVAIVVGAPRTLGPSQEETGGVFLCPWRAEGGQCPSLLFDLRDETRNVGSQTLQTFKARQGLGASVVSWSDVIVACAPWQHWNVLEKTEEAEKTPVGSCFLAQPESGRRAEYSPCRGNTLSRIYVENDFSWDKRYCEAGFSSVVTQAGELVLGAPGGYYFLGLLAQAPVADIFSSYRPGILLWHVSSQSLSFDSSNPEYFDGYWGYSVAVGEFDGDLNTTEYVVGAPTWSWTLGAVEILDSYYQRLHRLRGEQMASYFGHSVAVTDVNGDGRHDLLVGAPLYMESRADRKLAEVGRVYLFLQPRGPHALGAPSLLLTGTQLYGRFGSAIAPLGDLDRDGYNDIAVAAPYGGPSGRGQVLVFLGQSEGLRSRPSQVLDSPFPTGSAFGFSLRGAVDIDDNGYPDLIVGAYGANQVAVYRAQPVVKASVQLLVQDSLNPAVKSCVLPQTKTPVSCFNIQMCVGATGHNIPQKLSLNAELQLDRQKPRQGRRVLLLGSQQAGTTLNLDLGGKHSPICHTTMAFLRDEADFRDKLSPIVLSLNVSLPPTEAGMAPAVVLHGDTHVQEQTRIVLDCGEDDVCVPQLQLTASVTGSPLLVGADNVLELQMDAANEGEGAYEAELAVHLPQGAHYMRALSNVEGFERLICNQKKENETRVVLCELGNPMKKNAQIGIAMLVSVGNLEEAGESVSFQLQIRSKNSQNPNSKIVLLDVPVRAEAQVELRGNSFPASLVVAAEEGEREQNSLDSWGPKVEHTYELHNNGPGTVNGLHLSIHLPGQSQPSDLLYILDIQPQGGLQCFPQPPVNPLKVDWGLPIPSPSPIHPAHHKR
T1 sequence (P08514 891-1039 partner limits assumed): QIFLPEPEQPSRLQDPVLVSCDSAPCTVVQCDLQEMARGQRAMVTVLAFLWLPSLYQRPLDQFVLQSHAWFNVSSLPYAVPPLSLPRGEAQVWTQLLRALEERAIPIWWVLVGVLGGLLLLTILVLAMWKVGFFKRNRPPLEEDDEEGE
T1 sequence (P05106 27-788): as the sequence (P05106 27-788) above

In the case of `O=C(NCc1ccccc1)N[C@@H](CCC(=O)N1CCN(c2cccc(NC3=NCCCN3)c2)CC1)C(=O)O` [Ex. 143], on αvβ3 integrin, the IC50 – broadly, the concentration needed to halve the response being measured – worked out at 1.4 nM.

`CCOC(=O)N[C@@H](CCC(=O)N1CCN(c2cccc(NC3=NCCCN3)c2)CC1)C(=O)O` [Ex. 136]: the IC50 on αvβ3 integrin amounted to 0.59 nM.

Regarding `Cc1cc(C)c(S(=O)(=O)N[C@@H](CCC(=O)N2CCN(c3cccc(NC4=NCCCN4)c3)CC2)C(=O)O)c(C)c1` [Ex. 140], the IC50 at αIIbβ3 integrin came to 30 nM; at αvβ3 integrin it was 0.22 nM.

Consider `CCCCCCCCCCOC(=O)N[C@@H](CCC(=O)N1CCN(c2cccc(NC3=NCC(O)CN3)c2)CC1)C(=O)O` (some centres unmarked) [Ex. 134], for which the IC50 at αIIbβ3 integrin was more than 1000 nM; on αvβ3 integrin it was 0.64 nM.

On to `CC1(C)CN=C(Nc2cccc(N3CCC(C(=O)NC[C@H](NC(=O)OCc4ccccc4)C(=O)O)CC3)c2)NC1` [Ex. 11, (2S)-2-benzyloxycarbonylamino-3-[[1-[3-(5,5-dimethyl-1,4,5,6-tetrahydropyrimidin-2-yl)aminophenyl]piperidin-4-yl]carbonylamino]-propanoic acid], for which the results for the 50% inhibitory concentration (IC50) on αIIbβ3 integrin and at αvβ3 integrin were 87 nM and 0.14 nM, respectively.

As to `CC(C)OC(=O)N[C@@H](CNC(=O)C1CCN(c2cccc(NC3=NCCCN3)c2)CC1)C(=O)O` [Ex. 44, (2S)-2-isopropoxycarbonylamino-3-[[1-[3-(1,4,5,6-tetrahydropyrimidin-2-yl)aminophenyl]piperidin-4-yl]carbonylamino]-propanoic acid], the values for the IC50 on αIIbβ3 integrin and on αvβ3 integrin were 800 nM and 0.11 nM, respectively.

Regarding `CCNC(=O)N[C@@H](CCC(=O)N1CCN(c2cccc(NC3=NCCCN3)c2)CC1)C(=O)O` [Ex. 142], on αvβ3 integrin, the IC50 was determined as 3.6 nM.

As to `O=C(N[C@@H](CCC(=O)N1CCC(c2cccc(NC3=NCCCN3)c2)CC1)C(=O)O)OCc1ccccc1` [Ex. 148, (2S)-2-benzyloxycarbonylamino-5-[4-[3-(1,4,5,6-tetrahydropyrimidin-2-yl)aminophenyl]piperidin-1-yl]-5-oxopentanoic acid], the IC50 was 420 nM at αIIbβ3 integrin and 0.17 nM at αvβ3 integrin.

As to `COCCOC(=O)N[C@@H](CNC(=O)C1CCN(c2cccc(NC3=NCCCN3)c2)CC1)C(=O)O` [Ex. 94, (2S)-2-(2-methoxyethoxycarbonylamino)-3-[[1-[3-(1,4,5,6-tetrahydropyrimidin-2-yl)aminophenyl]piperidin-4-yl]carbonylamino]-propanoic acid], the IC50 on αIIbβ3 integrin amounted to 60 nM; on αvβ3 integrin, 0.21 nM.

Take `CCCCCCCCCCOC(=O)N[C@@H](CCC(=O)N1CCN(c2cccc(NC3=NCC(C)(C)CN3)c2)CC1)C(=O)O` [Ex. 132]: the IC50 was more than 1000 nM at αIIbβ3 integrin and 1.7 nM at αvβ3 integrin.

For the compound `C=CCOC(=O)N[C@@H](CNC(=O)C1CCN(c2cccc(NC3=NCCCN3)c2)CC1)C(=O)O` [Ex. 96, (2S)-2-allyloxycarbonylamino-3-[[1-[3-(1,4,5,6-tetrahydropyrimidin-2-yl)aminophenyl]piperidin-4-yl]carbonylamino] propanoic acid], the IC50 amounted to 60 nM at αIIbβ3 integrin and 0.08 nM on αvβ3 integrin.

Compound `O=C(N[C@@H](CCC(=O)N1CCN(c2cc(NC3=NCCCN3)ccc2F)CC1)C(=O)O)OCc1ccccc1` [Ex. 155, (2S)-2-benzyloxycarbonylamino-5-[4-[2-fluoro-5-(1,4,5,6-tetrahydropyrimidin-2-yl)aminophenyl]piperazin-1-yl]-5-oxopentanoic acid] showed an IC50 on αvβ3 integrin of 0.077 nM.

In the case of `O=C(N[C@@H](CNC(=O)C1CCN(c2cccc(NC3=NCC(F)CN3)c2)CC1)C(=O)O)OCc1ccccc1` (stereo partly drawn) [Ex. 13, (2S)-2-benzyloxycarbonylamino-3-[[1-[3-(5-fluoro-1,4,5,6-tetrahydropyrimidin-2-yl)aminophenyl]piperidin-4-yl]carbonylamino]-propanoic acid], the IC50 worked out at 59 nM on αIIbβ3 integrin and 0.042 nM on αvβ3 integrin.

As to `CC(C)COC(=O)N[C@@H](CCC(=O)N1CCN(c2cccc(NC3=NCC(O)CN3)c2)CC1)C(=O)O` (some centres unmarked) [Ex. 128], the IC50 at αvβ3 integrin amounted to 0.3 nM.

`O=C(N[C@@H](CNC(=O)C1CCC(c2cccc(NC3=NCCCN3)c2)CC1)C(=O)O)OCc1ccccc1` (single isomer, unassigned) [Ex. 151A]: the IC50 on αIIbβ3 integrin stood at 37 nM; on αvβ3 integrin, 0.074 nM.

On to `CCCCCCCCCCOC(=O)N[C@@H](CCC(=O)N1CCN(c2cccc(NC3=NCC(F)CN3)c2)CC1)C(=O)O` (some centres unmarked) [Ex. 133], for which the IC50 on αIIbβ3 integrin was more than 1000 nM; at αvβ3 integrin, 0.26 nM.

Consider `O=C(Cc1ccccc1)N[C@@H](CCC(=O)N1CCN(c2cccc(NC3=NCCCN3)c2)CC1)C(=O)O` [Ex. 139], for which, at αvβ3 integrin, the IC50 amounted to 6.8 nM.

On to `CCCCCCOC(=O)N[C@@H](CNC(=O)C1CCN(c2cccc(NC3=NCCCN3)c2)CC1)C(=O)O` [Ex. 88, (2S)-2-hexyloxycarbonylamino-3-[[1-[3-(1,4,5,6-tetrahydropyrimidin-2-yl)aminophenyl]piperidin-4-yl]carbonylamino]propanoic acid], for which the results for the IC50 on αIIbβ3 integrin and at αvβ3 integrin were 26 nM and 0.051 nM, respectively.

As for `O=C(N[C@@H](CCC(=O)N1CCN(c2cccc(NC3=NCC(F)CN3)c2)CC1)C(=O)O)OCc1ccccc1` (stereo partly drawn) [Ex. 124, (2S)-2-benzyloxycarbonylamino-5-[4-[3-(5-fluoro-1,4,5,6-tetrahydropyrimidin-2-yl)aminophenyl]piperazin-1-yl]-5-oxopentanoic acid], the values for the IC50 on αIIbβ3 integrin and on αvβ3 integrin were 540 nM and 0.063 nM, respectively.

`CC(C)COC(=O)N[C@@H](CCC(=O)N1CCN(c2cccc(NC3=NCC(F)CN3)c2)CC1)C(=O)O` (stereo partly drawn) [Ex. 127, (2S)-2-Isobutoxycarbonylamino-5-[4-[3-(5-fluoro-1,4,5,6-tetrahydropyrimidin-2-yl)aminophenyl]piperazin-1-yl]-5-oxopentanoic acid] yielded an IC50 on αvβ3 integrin of 0.055 nM.

On to `CC(C)COC(=O)N[C@@H](CCC(=O)N1CCN(c2cccc(NC3=NCC(C)(C)CN3)c2)CC1)C(=O)O` [Ex. 126], for which the IC50 at αvβ3 integrin stood at 0.38 nM.

Regarding `CC(C)COC(=O)N[C@@H](CCC(=O)N1CCN(c2cccc(NC3=NCCCN3)c2)CC1)C(=O)O` [Ex. 138, (2S)-2-isobutoxycarbonylamino-5-[4-[3-(1,4,5,6-tetrahydropyrimidin-2-yl)aminophenyl]piperazin-1-yl]-5-oxopentanoic acid], the IC50 on αvβ3 integrin came to 0.32 nM.
